In US6632797B2, “Method of treating angiogenesis” (priority 1996, dated 2003):

Key:
[1] = test system: Fibroblast growth factor (FGF); assay: Interaction between FGF and radioactive IP3, co-elution on Sephadex G-25 / Heparin-Sepharose columns; format: binding; conditions: co-elution from Sephadex G-25, 50 mM Hepes pH 7.4
Protocol: (§1) The mixture was incubated for 1 hour at 4° C.
This type of column fractionate substances according to molecular weight. Substances with molecular weight exceeding 1500 will not penetrate the microspheres of the column and will accordingly elute quite soon after being loaded to the column, while smaller molecules will appear later as they partly or totally penetrate the microspheres depending on the molecular weight.
The incubate was loaded on the column and was uluted with 50 mM Hepes in fractions of 0.4 ml each.
(§2) To further determine the interaction the fractions with radioactivity and UV absorbance were loaded on a Heparin-Sepharose CL-6B column (Pharmacia Biotech, Sweden) (volume 25 ml, height 20 cm). […] Elution was performed with 50 mM Hepes, pH 7.4 and each fraction of 1 ml was collected for determination of radioactivity and UV absorbance. A peak with radioactivity but without UV absorption was loaded on a similar Sephadex G-25 column as described above and was eluted with the same type of buffer. Maximum radioactivity was obtained in fraction number 13 i.e. in this case the substance with radioactivity was more retained on the column.

[2] = biological target: T1, Fibroblast growth factor acidic (aFGF) (Homo sapiens, UniProt P05230); assay: aFGF/Matrigel-induced swelling (tumor-like matrix) in nude mice; format: in vivo, BALBc nude mice; conditions: osmotic minipump, 0.4 g/ml, 14 days
T1 construct: purchased Sigma (USA)
T1 sequence (P05230 whole entry, species assumed): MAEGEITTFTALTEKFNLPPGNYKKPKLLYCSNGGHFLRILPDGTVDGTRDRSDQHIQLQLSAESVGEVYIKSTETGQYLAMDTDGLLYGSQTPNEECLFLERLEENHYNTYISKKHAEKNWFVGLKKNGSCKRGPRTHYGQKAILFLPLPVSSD
Protocol: Fibroblast growth factor acidic (aFGF) from Sigma (USA), was diluted in a buffer, RPMI-1640 (Life Technologies, UK). 25 μg of aFGF was diluted in 125 μl buffer and 50 μl was transferred to a small Eppendorf tube. 150 μl of Matrigel® basement membrane matrix from Becton and Dickinson (UK) was added to the tube and the content was thoroughly mixed for 60 minutes. All equipment was sterilized by irradiation or autoclaving (115° C. in 10 minutes) before use and all procedures were performed at 7° C. The mixture was kept in an icebath before the animal experiment.
Ten female, specific pathogen free BALBc nude mice with a weight of 18-22 g were maintained in autoclaved type III makrolon cages with filter tops in horizontal air flow cabinets in a barrier unit equipped with HEPA filters. Autoclaved bedding, irradiated feed and sterile filtered water was used. Temperature and humidity was kept constant at 22±2° C., 65±5 RH.
When fibroblast growth factor (FGF) and Matrigel® is mixed and inovulated to nude mice, developments of a swelling process ressembling tumor begin to develop.
A portion of the mixture of Matrigel® and a FGF was inoculated subcutaneously by a 23 G needle in the right flank of the mice. Two days before all mice were surgically prepared with osmotic minipumps (Alzet, model 2002).
To another group of five mice saline was administered as a control group.

[3] = biological target: bovine brain clathrin assembly protein-2 (AP-2); assay: Binding to clathrin assembly protein-2, competition with tritiated inositoltetraphosphate; conditions: competition with 10 nM tritiated inositoltetraphosphate, on ice, ten minutes
Protocol: The binding assay was done in a total volume of 100 μl buffer containing […] Na HEPES pH 7.1, […], […], 5 mg/ml IgG, 10 nM tritiated inositoltetraphosphate and 1.46 μg of AP-2. […] Incubation was carried out on ice for a period of ten minutes and then the protein was co-precipitated with IgG using 5% (w/w) polyethylene glycol and pelleted by centrifugation at […] for 10 minutes. The supernatants were aspirated, the pellets were wasted with 0.2 ml water and resuspended in 0.2 ml water and transferred to scintillation vials. 5.0 ml of cyto scint fluid was added to each vial and the radioactivity was measured.

[4] = test system: Nerve growth factors (NGFA from Vipera lebetina Venom and NGFB from Mouse Submaxillary glands); assay: Interaction between NGF and radioactive IP3, co-elution on Sephadex G-25 / Heparin-Sepharose columns; format: binding; conditions: co-elution from Sephadex G-25, 50 mM Hepes pH 7.4
Protocol: as §1
This type of column fractionate substances according to molecular weight.
The incubate was loaded on the column and was eluted with 50 mM Hepes in fractions of 0.4 ml each.
as §2, with “determine the interaction, the fractions” for “determine the interaction the fractions”, “radioactivity and UV-absorbance were loaded” for “radioactivity and UV absorbance were loaded”

[5] = test system: eye opening; assay: Eye opening of new-born mice; format: in vivo; conditions: 192 μg/g/day, daily injections day 0 to day 7; controls 13.6 and 13.5 days
Description: Growth factors are involved in processes occuring in new-born mammals. The biological process of eye opening is one example where specific growth factors affect the timing and completeness of the event.
Three groups of mice, 40 animals in each group were used. […] The third group served as a control without any treatment.

[6] = test system: phosphatidyl inositol 3′ kinase (PI 3′-kinase); assay: Interstitial fluid pressure (PIF) in rat hind paw, wortmannin-induced decrease; format: in vivo, Wistar Möller rats; conditions: 5 μg in 0.1 ml intravenous before wortmannin
Description: The enzyme phosphatidyl inositol 3′ kinase (PI 3′-kinase) is implicated in a number of growth factor induced responses such as mitogenesis, chemotaxis, membrane ruffling and the balance between osteoclasts and osteoblasts. Furthermore it is known that inactivation of PI 3′ kinase leads to increased oedema formation expressed as a decrease of interstitial fluid pressure (PIF) in animal models.
An inhibitor of PI 3′ kinase such as wortmannin renders a decrease of PIF as a consequence of inactivation of PI 3′ kinase.
The measurements were performed on female Wistar Möller rats (200-250 g), anesthetized with pentobarbital (50 mg/kg i.p.).
PIF was measured on the dorsal side of the hind paw with sharpened glass capillarier (tip diameter 2-7 μm) filled with 0.5 M NaCl coloured with Evans Blue and connected to a serve-controlled counter pressure system. The punctures were performed through intact skin using a stereomicroscope. The pipette-tip was located 0.3-0.5 mm below the skin. Pressure measurements were made 2.5-3.0 mm from the center of injection. The normal transcapillary pressure gradient is about 0.5 mm Hg.
Three sets of experiments were performed with six animals in each set.
In the first set of experiment the vehicle for wortmannin, DMSO diluted in saline, 5 μl, was injected subdermally using a chromatography syringe. […]

O=P(O)(O)OC1C(O)C(O)C(O)C(OP(=O)(O)O)C1OP(=O)(O)O [IP3, D-myo-inositol-1,2,6-trisphosphate]
interaction between FGF and IP3 [1]: strong interaction | volume of the formed matrix ([2]; Day 1): 150 mm^3 | volume of the formed matrix ([2]; Day 4): 125 mm^3 | volume of the formed matrix ([2]; Day 5): 90 mm^3 | volume of the formed matrix ([2]; Day 6): 50 mm^3 | volume of the formed matrix ([2]; Day 7): 50 mm^3 | volume of the formed matrix ([2]; Day 8): 70 mm^3 | volume of the formed matrix ([2]; Day 9): 70 mm^3 | IC50 [3]: 0.6 ± 0.1 µM | interaction between NGF and IP3 [4]: strong interaction | eye opening, medium value [5]: 15.3 days | effect of pretreatment on wortmannin-induced decrease in PIF [6]: abolished decrease in PIF
